Values joined by “and” are separate entries in the source; they are usually repeats but may differ in a detail not shown here. Identical values can stand only once. Inconclusive results and toxic doses are left out.
Tested on: B6C3F1 mice, intracerebral ependymoblastoma, median survival T/C
Experiment: NCI In Vivo Anticancer Drug Screen. Data for tumor model Ependymoblastoma (intracerebral) in B6C3F1 mice
Conditions: endpoint: median survival time, higher = longer survival
Experimental: The antitumor activity of compounds was measured in mice bearing transplantable tumors. Survival or tumor size were measured and the results are expressed as the measurement made in the treated group (T) divided by the measurement made in the vehicle treated control group (C). The tumor model used in this assay is Ependymoblastoma (intracerebral) in B6C3F1 mice

[1] = dose: 4.0 mg/kg/injection, schedule: Q01DX005 (ip), vehicle: saline with Tween-80
[2] = dose: 8.0 mg/kg/injection, schedule: Q01DX005 (ip), vehicle: saline with Tween-80

C1CCC2C[N-]CCC2C1.C1CCC2C[N-]CCC2C1.C1CCC2C[N-]CCC2C1.C1CCC2C[N-]CCC2C1.[Cl][Rh][Cl] (configuration not stated)
T/C (dose: 2.0 mg/kg/injection, schedule: Q01DX005 (ip), vehicle: dextrose): 102 % of control
T/C (dose: 4.0 mg/kg/injection, schedule: Q01DX005 (ip), vehicle: dextrose): 117 % of control

Nc1ccc(S(N)(=O)=O)cc1
T/C (dose: 25.0 mg/kg/injection, schedule: Q01DX005 (ip), vehicle: saline with Tween-80): 98 % of control
T/C (dose: 50.0 mg/kg/injection, schedule: Q01DX005 (ip), vehicle: saline with Tween-80): 96 % of control and 103 % of control
T/C (dose: 100.0 mg/kg/injection, schedule: Q01DX005 (ip), vehicle: saline with Tween-80): 101 % of control and 103 % of control
T/C (dose: 200.0 mg/kg/injection, schedule: Q01DX005 (ip), vehicle: saline with Tween-80): 92 % of control and 102 % of control
T/C (dose: 400.0 mg/kg/injection, schedule: Q01DX005 (ip), vehicle: saline with Tween-80): 101 % of control and 107 % of control
T/C (dose: 800.0 mg/kg/injection, schedule: Q01DX005 (ip), vehicle: saline with Tween-80): 95 % of control

O=P1(NCCCl)OCCCN1CCCl (configuration not stated)
T/C (dose: 25.0 mg/kg/injection, schedule: Q01DX001 (ip), vehicle: water): 101 % of control
T/C (dose: 40.0 mg/kg/injection, schedule: Q01DX001 (ip), vehicle: saline): 102 % of control
T/C (dose: 50.0 mg/kg/injection, schedule: Q01DX001 (ip), vehicle: water): 104 % of control and 105 % of control
T/C (dose: 80.0 mg/kg/injection, schedule: Q01DX001 (ip), vehicle: saline): 101 % of control
T/C (dose: 100.0 mg/kg/injection, schedule: Q01DX001 (ip), vehicle: water): 101 % of control and 113 % of control
T/C (dose: 160.0 mg/kg/injection, schedule: Q01DX001 (ip), vehicle: saline): 102 % of control
T/C (dose: 200.0 mg/kg/injection, schedule: Q01DX001 (ip), vehicle: water): 114 % of control and 124 % of control
T/C (dose: 320.0 mg/kg/injection, schedule: Q01DX001 (ip), vehicle: saline): 105 % of control
T/C (dose: 400.0 mg/kg/injection, schedule: Q01DX001 (ip), vehicle: water): 119 % of control
T/C (dose: 640.0 mg/kg/injection, schedule: Q01DX001 (ip), vehicle: saline): 118 % of control

CCOC(=O)C(CC(C)C)NC(=O)C(Cc1ccc(N(CCCl)CCCl)cc1)NC(C)=O (configuration not stated)
T/C (dose: 1.0 mg/kg/injection, schedule: Q01DX005 (ip), vehicle: Klucel (hydroxypropylcellulose) (HPC)): 87 % of control
T/C (dose: 2.0 mg/kg/injection, schedule: Q01DX005 (ip), vehicle: Klucel (hydroxypropylcellulose) (HPC)): 95 % of control
T/C (dose: 4.0 mg/kg/injection, schedule: Q01DX005 (ip), vehicle: Klucel (hydroxypropylcellulose) (HPC)): 97 % of control and 106 % of control and 113 % of control
T/C [1]: 104 % of control and 108 % of control
T/C (dose: 8.0 mg/kg/injection, schedule: Q01DX005 (ip), vehicle: Klucel (hydroxypropylcellulose) (HPC)): 97 % of control and 102 % of control and 107 % of control
T/C [2]: 101 % of control and 104 % of control
T/C (dose: 16.0 mg/kg/injection, schedule: Q01DX005 (ip), vehicle: Klucel (hydroxypropylcellulose) (HPC)): 100 % of control and 102 % of control and 105 % of control
T/C (dose: 16.0 mg/kg/injection, schedule: Q01DX005 (ip), vehicle: saline with Tween-80): 98 % of control and 105 % of control
T/C (dose: 32.0 mg/kg/injection, schedule: Q01DX005 (ip), vehicle: Klucel (hydroxypropylcellulose) (HPC)): 105 % of control and 109 % of control and 110 % of control
T/C (dose: 32.0 mg/kg/injection, schedule: Q01DX005 (ip), vehicle: saline with Tween-80): 106 % of control
T/C (dose: 64.0 mg/kg/injection, schedule: Q01DX005 (ip), vehicle: Klucel (hydroxypropylcellulose) (HPC)): 115 % of control
T/C (dose: 64.0 mg/kg/injection, schedule: Q01DX005 (ip), vehicle: saline with Tween-80): 163 % of control

CCCN(C)/N=N/c1nc[nH]c1C(N)=O
T/C [1]: 112 % of control
T/C [2]: 124 % of control

[N-]=[N+]=CC(=O)CCC(N)C(=O)O (configuration not stated)
T/C (dose: 0.05 mg/kg/injection, schedule: Q01DX005 (ip), vehicle: saline): 111 % of control
T/C (dose: 0.06 mg/kg/injection, schedule: Q01DX005 (ip), vehicle: saline): 93 % of control and 117 % of control
T/C (dose: 0.1 mg/kg/injection, schedule: Q01DX005 (ip), vehicle: saline): 97 % of control
T/C (dose: 0.12 mg/kg/injection, schedule: Q01DX005 (ip), vehicle: saline): 111 % of control and 114 % of control
T/C (dose: 0.2 mg/kg/injection, schedule: Q01DX005 (ip), vehicle: saline): 122 % of control
